Test results taken from article PMC9060023 (Skin Health and Disease, 2021).

Key:
[1] = system: B16F1 mouse melanoma cell line; assay: Melanin production in B16F1 cell line; assay type: cell-based; conditions: B16-F1, 72 h, read-out: EC50 of melanin production (95% confidence interval)
Procedure: Dulbecco's modified Eagle medium without phenol red (Life Technologies), containing 10% foetal bovine serum (Gibco) and 100 U/ml of penicillin‐streptomycin (Gibco), was used as the assay medium. Cells (1.5 × 10^4) were seeded into a 96‐well culture plate. Serially diluted test substances were added to the plate and incubated at 37°C in a humidified 5% CO2 incubator for 3 days.

Tyr, Trp1 and Dct genes = assay: Expression of melanogenesis genes in pinnae of Ay/a mice (quantitative real-time PCR); assay type: in vivo, mouse
Procedure: (§1) Unless noted otherwise, 3‐week‐old male C57BL/6J‐A^y/+ mice (Ay/a mice) were purchased from Japan SLC, Inc. Mice were housed under specific pathogen‐free conditions, and all animal experiments were conducted according to the Guidelines for Animal Experimentation at our institute. On day 0, the coat of the lower back was shaved, and animals were allocated to experimental groups. […] Assessment of coat colour of the shaved area on day 6 was performed macroscopically in a blinded manner. The dorsal skins were dissected and fixed in a neutralised formalin then embedded in paraffin. Melanin production in the hair roots of the dorsal skin was histologically evaluated by Fontana‐Masson staining.
Total RNA was extracted using the Qiagen RNeasy Mini Kit (Qiagen), and quantitative real‐time PCR for Tyr, Trp1 and Dct was performed using the One Step SYBR PrimeScript PLUS RT‐PCR Kit (Takara Bio). Hypoxanthine phosphoribosyltransferase 1 (Hprt) was used as an endogenous control for normalisation. The ΔCT method was used to determine the relative expression levels. All PCR primers were purchased from Takara Bio with following product codes, MA153806 (Tyr), MA129755 (Trp1), MA118342 (Dct) and MA031262 (Hprt).

[2] = system: cynomolgus monkeys (Macaca fascicularis); assay: Pigmentation on the facial skin of cynomolgus monkeys (colorimeter, ΔL*); assay type: in vivo, cynomolgus monkey
Procedure: This study was conducted in compliance with the ‘Act on Welfare and Management of Animals’ in Japan and the ‘Guidance for Animal Care and Use’ and in accordance with the protocol reviewed by the Institutional Animal Care and Use Committee of the test facility, which is fully accredited by AAALAC International. […] The measurement site (cheek) was the same site on the face for all animals. […] The ΔL* represents the differences of individual L* values between each time point and pre‐test.

[3] = Pharmacokinetic study, single oral dose in Ay/a mice; assay type: in vivo, mouse; conditions: for Cmax: Ay/a, mouse, po; for Cmax / Tmax / AUC(0-t): plasma; for AUC(0-t): read-out: AUC0–8 h
melanocytes in face = assay: Chronic toxicity study, histopathology of melanocytes in face; assay type: in vivo; conditions: chronic toxicity study in non-rodent species; data not shown
[4] = Tissue distribution study in rats; assay type: in vivo, rat; conditions: data not shown
human MC1R (hMC1R) = assay: Cyclic AMP assay in HEK293 cells stably expressing hMC1R; assay type: cell-based; conditions: wild type and variants
Procedure: (§2) The site‐specific integration of each MCR gene was carried out in accordance with the Jump‐In^TM TI^TM Gateway® Targeted Integration System user guide (www.lifetechnologies.com) except replacement of tetracycline‐induced CMV promoter into SV40 promoter in MCR expression vector as previously described.[15] This technology enables stable single copy integration at the same location in the genome, equalising expression levels. CHO‐K1 cells expressing human MC2R and accessory protein MRAP were prepared by EuroscreenFast (Gosselies, Belgium).
(§3) Hanks' balanced salt solution containing 1% bovine serum albumin and 10 mmol/l HEPES was prepared and used as an assay buffer. Cells were suspended in the assay buffer containing 0.5 mmol/l 3‐isobutyl‐1‐methylxanthine (Calbiochem) and plated into a microplate. Serially diluted test substances were then added and incubated for 30 min at 37°C. Concentrations of cAMP in the cells were quantified using the cAMP dynamic 2 kit (Cisbio Bioassays) by measuring fluorescence.

[5] = Pharmacokinetic study, 4 weeks repeated oral dosing in cynomolgus monkeys; assay type: in vivo, cynomolgus monkey; conditions: for Cmax / Tmax / AUC(0-t): female, cynomolgus monkey, plasma; for AUC(0-t): read-out: AUC0–24 h
[6] = biological target: T1, cynomolgus monkey MC1R (cmMC1R) (Macaca fascicularis, UniProt A3KF53); assay: Cyclic AMP assay in HEK293 cells stably expressing cmMC1R; assay type: cell-based; conditions: cmMC1R on HEK293; geometric mean of three experiments; read-out: EC50 agonistic activity (cAMP)
T1 sequence (A3KF53 1-317): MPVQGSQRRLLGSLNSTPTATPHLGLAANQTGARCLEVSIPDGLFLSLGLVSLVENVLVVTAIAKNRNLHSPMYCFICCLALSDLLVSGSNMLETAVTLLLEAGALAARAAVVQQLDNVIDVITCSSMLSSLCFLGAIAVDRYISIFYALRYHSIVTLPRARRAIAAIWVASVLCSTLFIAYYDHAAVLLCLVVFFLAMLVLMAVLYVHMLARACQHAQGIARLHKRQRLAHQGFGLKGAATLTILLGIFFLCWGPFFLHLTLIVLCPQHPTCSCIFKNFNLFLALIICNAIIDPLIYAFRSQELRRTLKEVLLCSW
Procedure: as §2, §3

[7] = system: C57BL/6J-Ay/+ mice (Ay/a mice); assay: Coat colour darkening in Ay/a mice; assay type: in vivo, mouse; conditions: for Coat colour of all mice: 6 consecutive days
Procedure: as §1

human MC2R (hMC2R) = biological target: T2, human MC2R (hMC2R) (Homo sapiens, UniProt Q01718); assay: Cyclic AMP assay in CHO-K1 cells expressing human MC2R and MRAP; assay type: cell-based; conditions: data not shown, read-out: EC50 agonistic activity (cAMP)
T2 construct: host or cells: CHO-K1
T2 sequence (Q01718 whole entry): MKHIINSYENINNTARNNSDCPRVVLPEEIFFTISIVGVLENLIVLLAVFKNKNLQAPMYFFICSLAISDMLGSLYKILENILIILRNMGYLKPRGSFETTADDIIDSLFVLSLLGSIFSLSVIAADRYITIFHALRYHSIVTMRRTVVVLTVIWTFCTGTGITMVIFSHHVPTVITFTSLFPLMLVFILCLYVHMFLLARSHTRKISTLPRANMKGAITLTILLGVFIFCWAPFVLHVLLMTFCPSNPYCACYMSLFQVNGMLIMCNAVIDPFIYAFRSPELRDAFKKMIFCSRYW
T2 sequence (Q8TCY5 whole entry partner): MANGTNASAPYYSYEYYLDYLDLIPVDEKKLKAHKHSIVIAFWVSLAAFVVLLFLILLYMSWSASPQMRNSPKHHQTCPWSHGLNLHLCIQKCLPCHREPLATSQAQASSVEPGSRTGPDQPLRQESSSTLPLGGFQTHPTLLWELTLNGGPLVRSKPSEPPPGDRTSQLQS

rat MC1R = biological target: T3, rat MC1R (Rattus norvegicus, UniProt B6ZGR5); assay: Cyclic AMP assay in HEK293 cells stably expressing rat MC1R; assay type: cell-based; conditions: data not shown, read-out: EC50 agonistic activity (cAMP)
T3 construct: expressed in transfected cells; host or cells: HEK293 (Jump-In TI Gateway targeted integration, SV40 promoter)
T3 sequence (B6ZGR5 1-317): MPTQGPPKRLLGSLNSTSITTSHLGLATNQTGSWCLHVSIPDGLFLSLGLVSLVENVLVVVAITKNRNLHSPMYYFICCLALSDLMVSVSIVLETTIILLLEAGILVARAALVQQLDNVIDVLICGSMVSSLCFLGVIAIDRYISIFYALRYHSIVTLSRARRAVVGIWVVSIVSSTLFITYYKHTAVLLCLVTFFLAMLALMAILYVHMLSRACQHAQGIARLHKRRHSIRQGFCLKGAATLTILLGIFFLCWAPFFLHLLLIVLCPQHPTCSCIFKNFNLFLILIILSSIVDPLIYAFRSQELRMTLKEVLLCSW

[8] = Ay/a mouse, male, 0.03 mg/kg oral, day 1
[9] = Ay/a mouse, male, 0.3 mg/kg oral, day 1

## COC[C@H]1CN(C(=O)[C@]2(F)CN(C3CCCC3)C[C@H]2c2ccc(OC)cc2)C[C@@H]1c1ccc(C(F)(F)F)cc1N1CCC(C(=O)O)CC1 [MT‐7117, dersimelagon]
[1]
  EC50: 0.013 nM
Tyr, Trp1 and Dct genes; 0.3 mg/kg single oral dose, 24 h
  Expression of Tyr, Trp1 and Dct genes in pinnae: tendency towards gene upregulation
Tyr, Trp1 and Dct genes; 3 mg/kg single oral dose, 24, 48 and 72 h, relative to Hprt
  Expression of Tyr, Trp1 and Dct genes in pinnae: significantly upregulated
[2]; 10 mg/kg/day oral
  Time of dosing after which ΔL* decrease was statistically significant versus vehicle: 3 weeks
[2]; 30 mg/kg group
  Time after cessation of treatment at which pigmentation diminished: 16 weeks
[2]; 30 mg/kg/day oral
  Time of dosing after which ΔL* decrease was statistically significant versus vehicle: 1 week
[2]; 1, 3 and 10 mg/kg groups
  Time after cessation of treatment at which pigmentation diminished: 4 weeks
[2]; 1 and 3 mg/kg/day oral
  Time of dosing after which ΔL* decrease was statistically significant versus vehicle: 4 weeks
[2]; oral, once daily
  Minimum effective dose for skin pigmentation of monkeys: 1 mg/kg
[2]; p.o.
  Dose that induced significant skin pigmentation in monkeys: ≥ 1 mg/kg/day
[3]; Ay/a mouse, male, 0.3 mg/kg oral, day 1, 0.3 mg/kg
  C max: 5.62 ng/mL
[3]; male, 0.03 mg/kg, Ay/a mouse, male, 0.03 mg/kg oral, day 1, read-out: C max
  Cmax: 0.668 ng/mL
[3]; male, 0.3 mg/kg, Ay/a mouse, male, 0.3 mg/kg oral, day 1, read-out: C max
  Cmax: 5.6 ng/mL
[3]; male, 0.3 mg/kg, mice, single oral dose 0.3 mg/kg, read-out: Cmax in molar units
  Cmax: 8.3 nM
[3]; mice, 0.03 and 0.3 mg/kg
  Increase of plasma levels with dose: dose‐proportional manner
[3]; [8]
  Tmax: 0.5 h
  AUC(0-t): 2.62 ng·h/mL
[3]; [9]
  Tmax: 2 h
  AUC(0-t): 31.8 ng·h/mL
Melanocytes in face
  Histopathological change for melanocytes in face: no histopathological change
[4]
  Distribution into the brain: less likely to be distributed into the brain
Human MC1R (hMC1R)
  Emax of cAMP production compared with αMSH: same level as that of the endogenous agonist αMSH
[5]; monkeys, repeated oral dosing 1 mg/kg, read-out: Cmax in molar units
  Cmax: 78 nM
[5]; monkeys, 1, 3 and 10 mg/kg
  Increase of plasma levels with dose: greater than a dose‐proportional increase
[5]; 1 mg/kg oral, day 28
  Tmax: 2.6 h
  AUC(0-t): 428 ng·h/mL
[5]; 1 mg/kg oral, day 28, read-out: C max
  Cmax: 53 ng/mL
[5]; 3 mg/kg oral, day 28
  Tmax: 1 h
  AUC(0-t): 2510 ng·h/mL
[5]; 3 mg/kg oral, day 28, read-out: C max
  Cmax: 401 ng/mL
[5]; 10 mg/kg oral, day 28
  Tmax: 1.8 h
  AUC(0-t): 14100 ng·h/mL
[5]; 10 mg/kg oral, day 28, read-out: C max
  Cmax: 1510 ng/mL
[6]
  EC50: 3.91 nM
[7]; 0.3 mg/kg orally
  Coat colour of all mice: black
[7]; 3 mg/kg orally
  Coat colour of all mice: black
[7]; 3 mg/kg, day 6
  Pigment in the hair root (Fontana-Masson staining of dorsal skin): black
[7]; oral, Ay/a mice
  Minimum effective dose for darkening of coat colour of mice: 0.3 mg/kg
[7]; p.o.
  Dose that significantly induced coat colour darkening in mice: ≥ 0.3 mg/kg/day
Human MC2R (hMC2R)
  EC50: > 10000 nM
Rat MC1R
  EC50: 0.251 nM
